# Key:
# Type in all cases: in vivo
# phenylquinone-writhing = experiment: Analgesic action (mouse, phenylquinone-writhing test); conditions: 10 mice
# Source text: |(mouse, phenylquinone-writhing test)
# Carrageenin edema = experiment: Antiinflammatory action (rat, Carrageenin edema); conditions: 6 rats
# Source text: Antiinflammatory action
# (Rat, Carrageenin edema)
# Mouse = experiment: Acute toxicity (mouse, oral, mortality); conditions: 500 mg/kg oral; observed for 7 days after dosing, mortality after 8 days
# Source text: The acute toxicity data for some representative isoxazolo[3,4-d]pyrimidines(I) are given below in Table 3.
# (Mouse, observed for 7 days after dosing, mortality
# [1] = 25 mg/kg oral, first experiment, control 12.7 ± 2.5
# [2] = 12.5 mg/kg oral, first experiment, control 0.543 ± 0.032
# [3] = 25 mg/kg oral, first experiment, control 0.543 ± 0.032
# [4] = 25 mg/kg oral, second experiment, control 17.3 ± 2.6
# [5] = 50 mg/kg oral, first experiment, control 12.7 ± 2.5
# [6] = 50 mg/kg oral, second experiment, control 17.3 ± 2.6
# [7] = 6.25 mg/kg oral, second experiment, control 0.512 ± 0.017
# [8] = 12.5 mg/kg oral, second experiment, control 0.512 ± 0.017
# [9] = 12.5 mg/kg oral, second experiment, control 17.3 ± 2.6
# [10] = 25 mg/kg oral, third experiment, control 13.7 ± 1.2
smiles,measurement,setting,value
"COc1ccc2c3c1O[C@H]1[C@@H](O)C=C[C@H]4[C@@H](C2)N(C)CC[C@@]341 [Codeine phosphate, reference compound]",% Suppression,phenylquinone-writhing; [1],72.4%
same,Average number of writhings & standard error,phenylquinone-writhing; [1],3.5 ± 1.2
"Cc1onc2c1c(=O)n(C)c(=O)n2C [Ia, 3,5,7-Trimethyl-5H,7H-isoxazolo[3,4-d]pyrimidine-4,6-dione]",% Suppression,Carrageenin edema; [2],21.4%
same,Volume of edema & standard error,Carrageenin edema; [2],0.427 ± 0.030 mL
same,% Suppression,Carrageenin edema; [3],35.5%
same,Volume of edema & standard error,Carrageenin edema; [3],0.350 ± 0.061 mL
same,Mortality,Mouse,1/5
same,% Suppression,phenylquinone-writhing; [1],54.3%
same,Average number of writhings & standard error,phenylquinone-writhing; [1],5.8 ± 2.4
same,% Suppression,phenylquinone-writhing; [4],67.1%
same,Average number of writhings & standard error,phenylquinone-writhing; [4],5.7 ± 1.5
same,% Suppression,phenylquinone-writhing; [5],55.9%
same,Average number of writhings & standard error,phenylquinone-writhing; [5],5.6 ± 2.3
same,% Suppression,phenylquinone-writhing; [6],93.1%
same,Average number of writhings & standard error,phenylquinone-writhing; [6],1.2 ± 0.5
"Cn1c(=O)c2conc2n(C)c1=O [Ib, 5,7-Dimethyl-5H,7H-isoxazolo[3,4-d]pyrimidine-4,6-dione]",% Suppression,Carrageenin edema; [7],21.9%
same,Volume of edema & standard error,Carrageenin edema; [7],0.400 ± 0.037 mL
same,% Suppression,Carrageenin edema; [8],32.0%
same,Volume of edema & standard error,Carrageenin edema; [8],0.348 ± 0.014 mL
same,Mortality,Mouse,1/5
same,% Suppression,phenylquinone-writhing; [9],54.9%
same,Average number of writhings & standard error,phenylquinone-writhing; [9],7.8 ± 1.9
same,% Suppression,phenylquinone-writhing; [1],63.8%
same,Average number of writhings & standard error,phenylquinone-writhing; [1],4.6 ± 1.2
same,% Suppression,phenylquinone-writhing; [4],77.5%
same,Average number of writhings & standard error,phenylquinone-writhing; [4],3.9 ± 1.0
same,% Suppression,phenylquinone-writhing; [5],92.1%
same,Average number of writhings & standard error,phenylquinone-writhing; [5],1.0 ± 0.8
CCn1c(=O)c2conc2n(CC)c1=O [Ic],% Suppression,phenylquinone-writhing; [10],47.4%
same,Average number of writhings & standard error,phenylquinone-writhing; [10],7.2 ± 1.5

# From patent US4202975A, “Isoxazolo[3,4-d]pyrimidines” (Takeda Chemical Industries, Ltd., priority 1976, dated 1980)
